Results published in patent US4709083A, “Method of making boron analogues” (The United States of America as represented by the …, priority 1986, dated 1987).

Experiments:
serum cholesterol = assay: hyperlipidemic screen: serum cholesterol levels (modified Liebermann-Burchard reaction); format: in vivo; details: male CF1 mice, intraperitoneal, 20 mg/kg day, 1% aqueous carboxymethylcellulose
Method: (§1) A hyperlipidemic screen was performed using the compounds of Examples 2 and 4. The compounds were suspended in 1% aqueous carboxymethylcellulose and adimistered to male CF1 mice intraperitoneally for 16 days at a dosage of 20 mg/kg day.
(§2) On days 9 and 16 blood was obtained by tail vein bleeding and the serum separated by centrifugation for 3 min.
(§3) Serum cholesterol levels were determined using a modification of the Liebermann-Burchard reaction, see Ness et al, Clin. Chim. Acta, v. 10, p. 229, (1964). Serum triglicerides were determined using the Fisher, Hycel Triglyceride Test Kit, a commercially available kit.

serum triglyceride = assay: hyperlipidemic screen: serum triglycerides (Fisher, Hycel Triglyceride Test Kit); format: in vivo; details: male CF1 mice, intraperitoneal, 20 mg/kg day, 1% aqueous carboxymethylcellulose
Method: as §1, §2, §3

Row | Structure (SMILES) | Serum cholesterol inhibition %, 9th Day (serum cholesterol) | Serum cholesterol inhibition %, 16th Day (serum cholesterol) | Triglyceride inhibition %, 16th Day (serum triglyceride)
1 | [BH3-][N+](C)(C)CCOC(=O)c1ccccc1 [Example 4, 2-(benzoyloxyethyl)dimethylamine-Borane] | 31% | 37% | 31%
2 | [BH3-][N+](C)(C)CCOC(C)=O [Example 2, 2 (Acetoxyethyl)dimethylamine-borane] | 28% | 41% | 32%
